Experimental data: patent publication US20230159442A1, “CELLULAR ENERGY COMPOUNDS, COMPOSITIONS, AND METHODS OF USE THEREOF” (priority 2021, published 2023)
Like-named read-outs stand apart in the source and are kept apart here.

Experiments:
[1] = Saturated aqueous solubility determination; settings: for solubility at 1.5 h: deionized water, 25 °C, water, thermodynamic from solid; for Ratio (relative to CM): solubility relative to creatine monohydrate
Protocol: After 1.5 hour, the saturated solutions were vortexed and 2-ml aliquots removed and centrifuged in microcentrifuge tubes at 11,000 rpm for 5 min. Concentrations were analyzed by HPLC by diluting 500 μL of supernatant with mobile phase (500 μL). The mean±standard deviation of the saturation solubility for each antiviral therapeutic compound is calculated from the corresponding standard curves.

Caco-2 monolayers = settings: cited from earlier work
[2] = tested on: Madin Darby canine kidney (MDCK) monolayers; assay: Flux per hour in MDCK monolayers (contemplated); type: in vitro ADME
Description: […]. […] […].

[3] = tested on: Calu-3 (human airway epithelial cell line) host cells; type: cell-based
[4] = tested on: Calu-3 (human airway epithelial cell line) host cells; type: cell-based; remark: listed apart in the source
T cells = type: cell-based, human; settings: T cells with T2 cells, Spike peptide […]; vs media alone

In the case of CCOC(=O)CN(C)C(=N)N.Cl [creatine ethyl ester hydrochloride], the solubility at 1.5 h [1] is listed as greater than 200 mg/mL and the “permeability relative to creatine monohydrate” value (Caco-2 monolayers) is listed as 15 fold.

In the case of CCCCCCCCCCCC(=O)OCC(COC(=O)CCCCCCCCCCC)OC(=O)CN(C)C(=N)N [creatine glycerol laurate ester], the “flux per hour relative to creatine monohydrate” value [2] is reported as “at least double”.

For C[N+](C)(C)CC(=O)OC1CCCC1.[Br-] [betaine cyclopentyl ester], the solubility at 1.5 h [1] was greater than 600 mg/mL, the “aqueous solubility compared with betaine hydrochloride” value ([1]; not shown) was “significantly greater than betaine hydrochloride” and the “Ratio (relative to CM)” value [1] was greater than 29. For the same compound, the “reduction of TNF expression” value [3] was “slightly reduces”, the “IL-1β expression as percent of the expression when no compound is present” value [4] was “less than 20%” and the “IL-6 expression as percent of the expression when no compound is present” value [4] was “less than 55%”. The “TNF expression as percent of the expression when no compound is present” value [4] was “less than 20%”, the “reduction of IL-6 expression” value [4] was “about 60%” and the “reduction of TNF expression” value [4] was “about 45%”. The “release of IFNg from T cells” value (T cells) was “increased over the control”.

For CN(CC(=O)O)C(=N)N.Cl [creatine hydrochloride], the “reduction of TNF expression” value [3] was “slightly reduces”, the “reduction of CXCL2 expression” value [4] was 25 to 30% and the “reduction of TNF expression” value [4] was “about 25%”. The “release of IFNg from T cells” value (T cells) was “increased over the control”.

In the case of CN(CC(=O)OC1CCCCC1)C(=N)N.Cc1ccc(S(=O)(=O)O)cc1 [creatine cyclohexyl ester], the solubility at 1.5 h [1] is reported as 15 to 20 mg/mL, the “Ratio (relative to CM)” value [1] is reported as 0.71 and the “flux per hour relative to creatine monohydrate” value [2] is reported as “at least double”. For the same compound, the “IL-1β expression as percent of the expression when no compound is present” value [3] was “less than 20%”, the “IL-6 expression as percent of the expression when no compound is present” value [3] was “less than 30%” and the “release of IFNg from T cells” value (T cells) was “increased over the control”.

For CCCCCCCCCCCC(=O)OC(C)COC(=O)CN(C)C(=N)N (stereo not shown) [creatine propylene glycol laurate ester], the “flux per hour relative to creatine monohydrate” value [2] was “at least double”.

For CN(CC(=O)O)C(=N)N.O [creatine monohydrate, reference compound], the apparent permeability coefficient (Caco-2 monolayers) is listed as “about 0.12±0.004 10^−6 cm/s”.

For “ethyl (α-guanido-methyl) ethanoate [Alpha-GEE]”, the “reduction of CXCL2 expression” value [3] was roughly 70% and the “release of IFNg from T cells” value (T cells) was “increased over the control”.

With CC(C)CCOC(=O)CN(C)C(=N)N.Cl [creatine isopentyl ester] the solubility at 1.5 h [1] was greater than 600 mg/mL, the “Ratio (relative to CM)” value [1] was greater than 29 and the “IL-1β expression as percent of the expression when no compound is present” value [3] was “less than 35%”. For the same compound, the “release of IFNg from T cells” value (T cells) was “increased over the control”.
